Measurements as given in patent publication US20110065628A1, “Medication Combinations for the Treatment of Alcoholism and Drug Addiction” (UNIVERSITY OF VIRGINIA PATENT FOUNDATION, priority 2007, published 2011).
Where a name gives a salt, the structure may show the parent alone.

Assays:
[1] = system: alcohol consumption (8% w/v) in rhesus monkeys; experiment: Naltrexone effect on alcohol drinking, fixed ratio schedule, 3 hour sessions; format: in vivo; details: increasing doses of naltrexone 0.1, 0.3, 1.0, 3.0 g/kg; three non food deprived rhesus monkeys
Procedure: FIG. 3 graphically illustrates the effects of Naltrexone on alcohol consumption in non-human primates (rhesus monkeys). Naltrexone was administered at 0.1 (∘), 0.3 ([…]), 1.0 (□) or 3.0 (▪) […]. The ordinate represents cumulative deliveries as percent change from baseline. The abscissa represents time in 10 minute blocks.
During these 3 hour sessions, both water and alcohol were concurrently available.

[2] = system: patients with alcohol and nicotine dependence; experiment: Open-label 8 week naltrexone study with coping skills therapy; format: in vivo, human; details: naltrexone 50 mg/day, 8 weeks
Excerpt: In an open-label study, we evaluated the efficacy of naltrexone, an opioid antagonist, in the treatment of alcohol dependence. Since up to 92% of alcoholics are also co-dependent on nicotine, our cohort included dually dependent individuals. […] From a local newspaper advertisement, we enrolled 10 subjects (6 males and 4 females; aged 40±2.56 years) into the study. All patients met DSM III-R criteria for both alcohol and nicotine dependence. Patients were instructed that the goal of treatment was abstinence by the end of the study. Patients received naltrexone (50 mg/day) in unmarked capsules with a riboflavin tracer for an 8 week period. Weekly attendance included combined coping skills therapy for alcohol and nicotine dependence, nursing visits, and completion of rating scales. […] Drop-out rate at 30% was similar to that observed in medication trials for alcoholism. This study supports the clinical evidence that naltrexone is a useful adjunct to Cognitive Behavioral Therapy for the treatment of alcoholism. Naltrexone's effects on cigarette smoking appears small but may warrant further exploration.

[3] = system: alcohol-preferring (P) rats; experiment: Combined topiramate and naltrexone on alcohol consumption; format: in vivo
Procedure: FIG. 8 graphically illustrates the combined effect of topiramate and naltrexone on alcohol consumption in alcohol-preferring (P) rats. Rats received either vehicle, topiramate at 5 mg/kg, topiramate at 10 mg/kg, naltrexone at 1/mg/kg and topiramate at 5 mg/kg, naltrexone at 1/mg/kg and topiramate at 10 mg/kg, or naltrexone at 1 mg/kg. Each data point represents the mean (±SE) of 8 rats as a change from baseline.
No significant differences were observed following vehicle injection. Data are plotted as change from baseline consumption, and each data point represents a mean (±SE) of 8 rats.

[4] = system: individuals in alcohol trials; details: cited from earlier work
[5] = system: alcoholics (EOA and LOA); experiment: 11-week double-blind ondansetron trial with weekly Cognitive Behavioral Therapy; format: in vivo, human; details: for Drinks/Day / Drinks/Drinking Day: at endpoint; for Drinks/Day: placebo 3.30; for Drinks/Drinking Day: placebo 6.90
Excerpt: It was hypothesized herein that the drinking outcomes of EOA, compared with LOA, would be more improved by the selective serotonin antagonist, ondansetron. EOA differ from LOA by having greater serotonergic abnormality, an earlier age of onset, and antisocial behaviors. Thus, EOA may be especially responsive to treatment with a selective serotonergic agent.
The design was as follows: 321 alcoholics (EOA=161; LOA=160; mean age 40.6 years; 70.5% male, and 78.6% white) received one lead in week of single-blind placebo followed by 11 weeks of double-blind outpatient treatment using a 2×4 factorial design which examined age of onset (EOA vs. LOA) and medication dose (placebo, or ondansetron 1, 4, or 16 μg/kg b.i.d) combined with weekly standardized group Cognitive Behavioral Therapy. Efficacy measures were: 1) Self reported drinking (Drinks/Day, Drinks/Drinking Day, Percent Days Abstinent, and Total Days Abstinent/study week), and 2) plasma Carbohydrate Deficient Transferrin level (CDT).

[6] = system: alcohol-preferring (P) rats; experiment: 24-hour-access two-bottle choice alcohol consumption, topiramate, ondansetron, naltrexone; format: in vivo
Procedure: FIG. 10, comprising 5 panels—FIGS. 10A to 10E, graphically illustrates the combined effect of topiramate (10 mg/kg, IP), ondansetron (0.001 mg/kg, IP), and naltrexone (1 mg/kg, IP) on alcohol consumption in alcohol-preferring (P) rats. 10A—Topiramate alone; 10B—Ondansetron alone; 10C—Vehicle; 10D—Topiramate+Ondansetron; 10E—Topiramate+Ondansetron+Naltrexone. Data are plotted across seven consecutive sessions, which include a 3-day baseline period, the test session in which the ondansetron, topiramate, and naltrexone injection was administered, and the three sessions that followed the test session. Each data point represents a mean (±SE) of at least six rats. The ordinate represents ethanol intake in g/kg and the abscissa represents session number.
The effects of ondansetron, topiramate, and naltrexone, medications shown to be efficacious in treating alcohol-dependent humans, on measures of alcohol dependence were determined in animal models in order to determine whether these medications may produce additive effects when combined. The experiments examined their ability to modulate total consumption under a 24-hour-access two-bottle choice procedure wherein rats had unlimited access to alcohol solutions (10%) and water. […]

[7] = system: EOA and LOA alcoholics; details: EOA compared with LOA; 1, 4, 16 μg/kg twice daily, particularly 4 μg/kg; cited from earlier work
[8] = system: patients with alcoholism (DSM III-R); experiment: 12-week outpatient placebo-controlled ritanserin trial with Cognitive Behavioral Therapy; format: in vivo, human; details: ritanserin 2.5 mg or 5 mg, 12 weeks
Procedure: FIG. 5 graphically illustrates the effects of treatment with Ritanserin in conjunction with Cognitive Behavioral Therapy. The ordinate represents the mean number of drinks since the last visit and the abscissa indicates the time period of assessment in the study (in weeks). Subjects were treated with 2.5 mg Ritanserin ([…]), 5.0 mg Ritanserin ? or received placebo (▴).
In this study, we examined the efficacy of ritanserin on alcohol consumption in a 12-week, outpatient, placebo-controlled clinical trial. This study overlapped in time and recruitment effort with the ondansetron study described above. Therefore, our research group has the expertise to conduct multiple treatment studies simultaneously. Fifty-four patients from our center who met DSM III-R criteria for alcoholism participated and were randomized to receive placebo, 2.5 mg, or 5 mg of ritanserin. All patients received standardized manual driven Cognitive Behavioral Therapy for alcoholism. Cognitive Behavioral Therapy was conducted by counselors with extensive experience with behavioral treatments, and over 500 therapy hours were logged. […] There was no within time effect nor group interaction. Similarly, there was no difference in craving between the treatment groups.

[9] = system: individuals who take topiramate; details: cited from earlier work
[10] = system: alcohol-dependent men and women; details: topiramate up to 300 mg per day, 12 weeks; cited from earlier work
[11] = EOA, ondansetron 1 μg/kg b.i.d, p<0.05
[12] = EOA, ondansetron 4 μg/kg b.i.d, p<0.05
[13] = N=321, 88 received the 4 μg/kg dose

O=C1CC[C@@]2(O)[C@H]3Cc4ccc(O)c5c4[C@@]2(CCN3CC2CC2)[C@H]1O5 [naltrexone, 17-(Cyclopropylmethyl)-4,5 a-epoxy-3,14-dihydroxymorphinan-6-one hydrochloride]
alcohol consumption [1]: dose-dependent decreases
nicotine withdrawal symptoms [2]: No patient reported clinically significant nicotine withdrawal symptoms
alcohol consumption ([2]; before 3.29±2.16 drinks/day, p<0.05): 2.16±1.88 drinks/day
smoking ([2]; before 21.10±5.57 cigarettes/day): 15.93±3.09 cigarette/day
alcohol consumption, change from baseline ([3]; naltrexone alone, 1 mg/kg intraperitoneally): did not affect alcohol consumption on its own
rate of subject withdrawal due to naltrexone induced nausea ([4]; Croop and Colleagues, 570 received naltrexone): 15%
individuals unable to tolerate naltrexone ([4]; naltrexone dose of 50 mg/day): about 15%

Cc1nccn1CC1CCc2c(c3ccccc3n2C)C1=O (stereo not shown) [ondansetron, 9-methyl-3-[(2-methyl-1H-imidazol-1-yl)methyl]-1,2,3,9-tetrahydrocarbazol-4-one]
Drinks/Day [5, 11]: 1.89
Drinks/Drinking Day [5, 11]: 4.75
mean log CDT ratio between endpoint and enrollment ([5]; EOA, ondansetron 1 μg/kg b.i.d, placebo +0.11, p<0.05): −0.17
Drinks/Day [5, 12]: 1.56
Drinks/Drinking Day [5, 12]: 4.28
Drinking outcomes in LOA ([5]; LOA): not improved substantially
nausea [5, 13]: nausea was not reported
side-effects vs. placebo [5, 13]: no side-effect was reported more often than placebo
Total Days Abstinent/study week ([5]; ondansetron 4 μg/kg b.i.d, placebo 5.92, p<0.05): 6.74
Percent Days Abstinent ([5]; ondansetron 4 μg/kg b.i.d, placebo 50.20, p<0.05): 70.10
alcohol consumption ([6]; ondansetron alone 0.001 mg/kg intraperitoneally (FIG. 10B)): did not affect alcohol consumption on its own
drinking [7]: significant reductions in drinking

Cc1nc2sccn2c(=O)c1CCN1CCC(=C(c2ccc(F)cc2)c2ccc(F)cc2)CC1 [ritanserin]
alcohol consumption [8]: no clinically significant effect
craving [8]: no clinically significant effect

CC1(C)O[C@@H]2[C@@H](CO[C@@]3(COS(N)(=O)=O)OC(C)(C)O[C@@H]23)O1 [topiramate, 2,3:4,5-Bis-O-(1-methylethylidene)-beta-D-fructopyranose sulfamate]
alcohol consumption, change from baseline ([3]; topiramate alone, 10 mg/kg intraperitoneally, effect not yet significant): only modestly decreased alcohol consumption
decrease in alcohol consumption from baseline ([6]; topiramate alone 10 mg/kg intraperitoneally (FIG. 10A)): 12%±8%
cognitive impairment, reported rate ([9]; general population): 2.4%
cognitive impairment, occurrence rate ([9]; substance abuse field): about 18.7%
craving vs. placebo [10]: significantly less craving
days of abstinence vs. placebo [10]: significantly more days of abstinence
drinks per day, drinking days, drinks per drinking day vs. placebo [10]: significantly fewer drinks per day, drinking days, and drinks per drinking day
